Measured values published in ChEMBL document CHEMBL3860053, “Optimization of amino acid thioesters as inhibitors of metallo-β-lactamase L1” (Bioorg Med Chem Lett, 2016).
pIC50: −log10 of the molar value. Converted amounts (≈) assume the structure as drawn.

How the values were obtained:
[1] = Inhibition of metallo-beta-lactamase L1 (unknown origin) overexpressed in Escherichia coli BL21(DE3) preincubated for 30 mins followed by addition of cefazolin as substrate by spectrophotometric method
[2] = Inhibition of metallo-beta-lactamase L1 (unknown origin) overexpressed in Escherichia coli BL21(DE3) assessed as restoration of cefazolin antibacterial activity by measuring cefazolin MIC at 16 ug/ml measured after 12 hrs by macrodilution broth method (reference value: 16 ug/ml)
Escherichia coli = assay: Potentiation of cefazolin-induced antibacterial activity against Escherichia coli BL21(DE3) assessed as cefazolin MIC at 16 ug/ml measured after 12 hrs by macrodilution broth method (reference value: 4 ug/ml); type: functional

SMILES | pIC50 [1] | MIC [2] [µg/mL] | MIC (Escherichia coli) [µg/mL]
O=C(O)CSC(=O)[C@H](Cc1ccccc1)NC(=O)Cc1ccc(-c2ccccc2)cc1 | 6.85 | 2 (≈ 4.61 µM) | 4
CCCCCC(=O)N[C@@H](Cc1c[nH]c2ccccc12)C(=O)SCC(=O)O | 6.22 | 4 (≈ 10.6 µM) | 4
CCCCCC(=O)N[C@@H](Cc1ccccc1)C(=O)SCC(=O)O | 6.48 | 2 (≈ 5.93 µM) | 4
CSCC[C@H](NC(=O)Cc1ccc(-c2ccccc2)cc1)C(=O)SCC(=O)O | 7.70 | 4 (≈ 9.58 µM) | 4
CSCC[C@H](NC(=O)Cc1ccccc1)C(=O)SCC(=O)O | 7.05 | 4 (≈ 11.7 µM) | 4
O=C(O)CSC(=O)[C@H](Cc1c[nH]c2ccccc12)NC(=O)Cc1ccc(-c2ccccc2)cc1 | 7.10 | 4 (≈ 8.46 µM) | 4
O=C(O)CSC(=O)[C@H](Cc1c[nH]c2ccccc12)NC(=O)Cc1ccccc1 | 6.68 | 4 (≈ 10.1 µM) | 4
CSCC[C@H](NC(=O)c1ccccc1)C(=O)SCC(=O)O | 7.10 | 4 (≈ 12.2 µM) | 4
O=C(O)CSC(=O)c1ccc(NC(=O)OCc2ccccc2)cc1 |  | 16 (≈ 46.3 µM) | 4
O=C(O)CSC(=O)[C@H](Cc1ccccc1)NC(=O)Cc1ccccc1 | 6.60 | 2 (≈ 5.6 µM) | 4
